ChEMBL document CHEMBL1132635, “N6,5'-Disubstituted adenosine derivatives as partial agonists for the human adenosine A3 receptor” (J Med Chem, 1999)

Assays:
[1] = target: T1, Adenosine receptor A1 (Rattus norvegicus) (UniProt P25099); experiment: Percentage displacement of [3H]DPCPX from rat cortical membranes Adenosine A1 receptor at 10 uM; type: cell membranes; conditions: Membrane
T1 sequence (whole entry): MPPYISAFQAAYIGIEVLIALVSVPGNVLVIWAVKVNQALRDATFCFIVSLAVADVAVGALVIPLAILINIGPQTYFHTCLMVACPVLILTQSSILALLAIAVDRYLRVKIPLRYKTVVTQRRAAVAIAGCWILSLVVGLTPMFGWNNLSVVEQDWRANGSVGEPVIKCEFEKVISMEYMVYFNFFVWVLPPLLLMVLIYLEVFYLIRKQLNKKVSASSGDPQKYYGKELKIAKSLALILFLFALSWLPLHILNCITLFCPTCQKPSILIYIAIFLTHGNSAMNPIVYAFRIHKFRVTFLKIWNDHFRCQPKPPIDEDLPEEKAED

[2] = target: T2, Adenosine receptor A3 (Homo sapiens) (UniProt P0DMS8); experiment: Percentage of [35S]GTP-gamma-S, binding to the human adenosine A3 receptor stimulated at 10E-4 M; type: functional
T2 sequence (whole entry): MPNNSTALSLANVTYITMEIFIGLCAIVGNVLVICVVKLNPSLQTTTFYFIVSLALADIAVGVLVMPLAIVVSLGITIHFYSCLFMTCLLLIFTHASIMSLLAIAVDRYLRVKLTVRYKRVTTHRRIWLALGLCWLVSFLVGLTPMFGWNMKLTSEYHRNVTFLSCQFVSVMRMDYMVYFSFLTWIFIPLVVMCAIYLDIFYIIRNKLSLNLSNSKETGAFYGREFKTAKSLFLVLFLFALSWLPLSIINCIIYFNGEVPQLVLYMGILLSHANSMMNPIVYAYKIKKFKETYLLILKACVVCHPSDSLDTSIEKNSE

[3] = target: Adenosine receptor A2a (Rattus norvegicus) (UniProt P30543); experiment: Percentage displacement of [3H]-CGS- 21680 from Adenosine A2A receptor of rat striatal membranes at 10 uM; type: cell membranes; conditions: Membrane
Adenosine receptor A3 [4] = target: T3, Adenosine receptor A3 (Homo sapiens, UniProt P0DMS8); experiment: Binding affinity at human Adenosine A3 receptor expressed in HEK 293 cells by [125I]AB-MECA displacement.; type: cell-based, HEK293
T3 sequence (P0DMS8 whole entry): T2 sequence (whole entry)

[5] = target: Adenosine receptors; A1 & A3 (Rattus norvegicus) (UniProt P25099+P28647); experiment: Ratio of displacement of A1 receptor to A3 receptor; type: protein assay
Adenosine receptor A2a [6] = target: T4, Adenosine receptor A2a (Rattus norvegicus, UniProt P30543); experiment: Displacement of [3H]-CGS- […] from Adenosine A2A receptor of rat striatal membranes; type: cell membranes, Membrane
Adenosine receptor A1 = target: T5, Adenosine receptor A1 (Rattus norvegicus, UniProt P25099); experiment: Displacement of [3H]DPCPX from rat cortical membranes Adenosine A1 receptor; type: cell membranes, Membrane
T5 sequence (P25099 whole entry): T1 sequence (whole entry)

Adenosine receptor A2a [7] = target: T4, Adenosine receptor A2a; experiment: Displacement of [3H]-CGS- 21680 from Adenosine A2A receptor of rat striatal membranes; type: cell membranes, Membrane
[8] = target: T2, Adenosine receptor A3 (Homo sapiens); experiment: Inhibition of forskolin-stimulated cAMP production mediated by human adenosine A3 receptor expressed in CHO cells at 10 uM; type: functional, cell-based
[9] = target: T2, Adenosine receptor A3 (Homo sapiens); experiment: Inhibition of forskolin-induced c-AMP production by adenosine A3 receptor with 10 uM NECA; type: functional
Adenosine receptor A3 [10] = target: T3, Adenosine receptor A3; experiment: Effective concentration for stimulation of [35S]GTP-gamma-S, binding to human adenosine A3 receptor; type: functional
Adenosine receptor A3 [11] = target: T3, Adenosine receptor A3; experiment: Displacement of [125I]AB-MECA from human Adenosine A3 receptor expressed in HEK 293 cells; type: cell-based, HEK293

Sequence of Adenosine receptor A2a (Rattus norvegicus) (P30543 whole entry): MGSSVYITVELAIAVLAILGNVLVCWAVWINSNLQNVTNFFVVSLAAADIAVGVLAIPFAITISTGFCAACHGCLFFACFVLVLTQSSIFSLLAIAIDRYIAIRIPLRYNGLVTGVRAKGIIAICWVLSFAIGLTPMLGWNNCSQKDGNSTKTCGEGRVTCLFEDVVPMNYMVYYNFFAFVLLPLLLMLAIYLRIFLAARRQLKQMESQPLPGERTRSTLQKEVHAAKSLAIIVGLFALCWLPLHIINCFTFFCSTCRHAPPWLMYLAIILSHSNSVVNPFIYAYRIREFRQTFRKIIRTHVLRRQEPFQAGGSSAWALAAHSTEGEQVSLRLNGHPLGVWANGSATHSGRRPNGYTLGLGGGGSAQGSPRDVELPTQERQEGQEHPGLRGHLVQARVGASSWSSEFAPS
T4 sequence (P30543 whole entry): as above

Row | Structure (SMILES) | Radioligand bound [2] [%] | Ki (Adenosine receptor A3 [4]) [nM] | Ratio [5] | further results
1 | CCCSC[C@H]1O[C@@H](n2cnc3c(NCc4cccc(I)c4)ncnc32)[C@H](O)[C@@H]1O | 10 | 44.3 | > 226 | Displacement [1]: 42%; Displacement [3]: 42%
2 | CC(C)SC[C@H]1O[C@@H](n2cnc3c(NC4CCCC4)ncnc32)[C@H](O)[C@@H]1O | – | 137 | 0.3 | Ki (Adenosine receptor A2a [6]): 10200 nM; Ki (Adenosine receptor A1): 41 nM
3 | OC[C@H]1O[C@@H](n2cnc3c(NC4CCCC4)ncnc32)[C@H](O)[C@@H]1O [N6-CYCLOPENTYLADENOSINE] | – | 120 | – | –
4 | O[C@@H]1[C@H](O)[C@@H](CCl)O[C@H]1n1cnc2c(NCc3cccc(I)c3)ncnc21 | 8 | 188 | 1.4 | Ki (Adenosine receptor A2a [7]): 457 nM; Ki (Adenosine receptor A1): 270 nM
5 | CCNC(=O)[C@H]1O[C@@H](n2cnc3c(N)ncnc32)[C@H](O)[C@@H]1O | 100 | – | – | inhibition [8]: 100%
6 | CCSC[C@H]1O[C@@H](n2cnc3c(NCc4cccc(I)c4)ncnc32)[C@H](O)[C@@H]1O | 21 | 17.5 | 41.1 | Ki (Adenosine receptor A2a [7]): 1080 nM; Ki (Adenosine receptor A1): 720 nM
7 | CCCSC[C@H]1O[C@@H](n2cnc3c(NCc4ccccc4)ncnc32)[C@H](O)[C@@H]1O | 7 | 647 | 8.7 | Ki (Adenosine receptor A2a [7]): 7990 nM; Ki (Adenosine receptor A1): 5870 nM
8 | CC(C)SC[C@H]1O[C@@H](n2cnc3c(NCc4cccc(I)c4)ncnc32)[C@H](O)[C@@H]1O | 16 | 46.3 | > 216 | Displacement [1]: 35%; Displacement [3]: 45%
9 | CSC[C@H]1O[C@@H](n2cnc3c(NC4CCCC4)ncnc32)[C@H](O)[C@@H]1O | – | 74 | 0.8 | –
10 | CCSC[C@H]1O[C@@H](n2cnc3c(NCc4ccccc4)ncnc32)[C@H](O)[C@@H]1O | 19 | 159 | > 62.9 | Displacement [1]: 29%; Displacement [3]: 38%
11 | OC[C@H]1O[C@@H](n2cnc3c(NCc4cccc(I)c4)ncnc32)[C@H](O)[C@@H]1O | 56 | – | – | inhibition [8]: 86%; inhibition [9]: 91%
12 | CCCSC[C@H]1O[C@@H](n2cnc3c(NC4CCCC4)ncnc32)[C@H](O)[C@@H]1O | – | 193 | 0.39 | –
13 | CC(C)SC[C@H]1O[C@@H](n2cnc3c(NCc4ccccc4)ncnc32)[C@H](O)[C@@H]1O | 22 | 211 | > 47.4 | Displacement [1]: 14%; Displacement [3]: 6%
14 | CNC(=O)[C@H]1OC(n2cnc3c(NCc4ccccc4)ncnc32)[C@@H](O)[C@H]1O (some centres undefined) | – | 41 | – | –
15 | COc1cccc(CNc2nc(Cl)nc3c2ncn3C2O[C@H](c3ccon3)[C@H](O)[C@@H]2O)c1 (some centres undefined) | – | 31 | – | –
16 | OC[C@H]1O[C@@H](n2cnc3c(NCc4ccccc4)ncnc32)[C@H](O)[C@@H]1O [N6-BENZYLADENOSINE] | 81 | 550 | – | Ki (Adenosine receptor A2a [7]): 733 nM; EC50 (Adenosine receptor A3 [10]): 384 nM; inhibition [8]: 82%; inhibition [9]: 94%
17 | O[C@@H]1[C@H](O)[C@@H](CCl)O[C@H]1n1cnc2c(NCc3ccccc3)ncnc21 | 13 | 1860 | > 5.4 | Displacement [1]: 47%; Ki (Adenosine receptor A2a [7]): 641 nM
18 | O[C@H]1[C@@H](c2ccon2)OC(n2cnc3c(NCc4cccc(I)c4)nc(Cl)nc32)[C@H]1O (some centres undefined) | – | 7.8 | – | –
19 | CSC[C@H]1O[C@@H](n2cnc3c(NCc4cccc(I)c4)ncnc32)[C@H](O)[C@@H]1O | 41 | 8.78 | 69.5 | Ki (Adenosine receptor A2a [7]): 1820 nM; Ki (Adenosine receptor A1): 610 nM; EC50 (Adenosine receptor A3 [10]): 27 nM; inhibition [8]: 64%; inhibition [9]: 87%
20 | O[C@@H]1[C@H](O)[C@@H](CCl)O[C@H]1n1cnc2c(NC3CCCC3)ncnc21 | – | 1290 | 0.007 | –
21 | CCSC[C@H]1O[C@@H](n2cnc3c(NC4CCCC4)ncnc32)[C@H](O)[C@@H]1O | – | 90 | 0.5 | –
22 | CNC(=O)C[C@H]1OC(n2cnc3c(NCc4cccc(I)c4)nc(Cl)nc32)[C@@H](O)[C@H]1O (some centres undefined) | – | – | – | Ki (Adenosine receptor A3 [11]): 0.33 nM
23 | CSC[C@H]1O[C@@H](n2cnc3c(NCc4ccccc4)ncnc32)[C@H](O)[C@@H]1O | 52 | 128 | > 78.1 | Displacement [1]: 31%; EC50 (Adenosine receptor A3 [10]): 473 nM; Displacement [3]: 25%; inhibition [8]: 60%; inhibition [9]: 93%
